ChEMBL document CHEMBL1201862, “PubChem BioAssay data set” (2004)
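Tested at 5 concentrations; 48 h exposure; 96-well plates; endpoints linearly interpolated, else capped at highest concentration. GI50 marks 50% less growth.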 Activity calls are given as the source filed them. No stated cut-off is given here; in the data, active = GI50 up to about 1.1 µM and inactive = higher.

Assays:
Test in all cases: NCI-60 cell line screen, 48 h
SNB-78 = tested on: SNB-78
CCRF-CEM = tested on: CCRF-CEM
SN12C = tested on: SN12C
NCI-H460 = tested on: NCI-H460
UO-31 = tested on: UO-31
CAKI-1 = tested on: CAKI-1
OVCAR-8 = tested on: OVCAR-8
SK-MEL-28 = tested on: SK-MEL-28
HL-60 = tested on: HL-60
M14 = tested on: M14
A549 = tested on: A549
PC-3 = tested on: PC-3
BT-549 = tested on: BT-549
MDA-MB-435 = tested on: MDA-MB-435
Hs-578T = tested on: Hs-578T
MDA-MB-231 = tested on: MDA-MB-231
RXF 393 = tested on: RXF 393
NCI-H226 = tested on: NCI-H226
SK-MEL-5 = tested on: SK-MEL-5
MDA-N = tested on: MDA-N

Compound: O=C1C2C(C(=O)N1c1ccccc1)C1([N+](=O)[O-])C=C3c4ccccc4N(C(=O)c4ccccc4)C32C2C(=O)N(c3ccccc3)C(=O)C21 (stereo unspecified)
- GI50 (SNB-78): > 100 µM (inactive)
- GI50 (CCRF-CEM): > 100 µM (inactive)
- GI50 (SN12C): > 100 µM (inactive)
- GI50 (NCI-H460): > 100 µM (inactive)
- GI50 (UO-31): > 100 µM (inactive)
- GI50 (CAKI-1): > 100 µM (inactive)
- GI50 (OVCAR-8): > 100 µM (inactive)
- GI50 (SK-MEL-28): > 100 µM (inactive)
- GI50 (HL-60): > 100 µM (inactive)
- GI50 (M14): > 100 µM (inactive)
- GI50 (A549): > 100 µM (inactive)

Compound: [N-]=[N+]=NC1C(O)C(CO)OC1n1ccc(=O)[nH]c1=O (stereo unspecified)
- GI50 (PC-3): > 875 µM (inactive)
- GI50 (BT-549): > 875 µM (inactive)
- GI50 (MDA-MB-435): > 875 µM (inactive)
- GI50 (CCRF-CEM): > 875 µM (inactive)
- GI50 (SN12C): > 875 µM (inactive)
- GI50 (Hs-578T): > 875 µM (inactive)
- GI50 (MDA-MB-231): > 875 µM (inactive)
- GI50 (NCI-H460): > 875 µM (inactive)
- GI50 (UO-31): > 875 µM (inactive)
- GI50 (CAKI-1): > 875 µM (inactive)
- GI50 (OVCAR-8): > 875 µM (inactive)
- GI50 (SK-MEL-28): > 875 µM (inactive)
- GI50 (RXF 393): 0.0875 µM (active)
- GI50 (NCI-H226): > 875 µM (inactive)
- GI50 (HL-60): 863 µM (inactive)
- GI50 (M14): > 875 µM (inactive)
- GI50 (SK-MEL-5): > 875 µM (inactive)
- GI50 (A549): > 875 µM (inactive)
- GI50 (MDA-N): > 875 µM (inactive)

Compound: O=C(NCc1ccc(Cl)c(Cl)c1)c1nc2ccccc2nc1NCc1ccc(Cl)c(Cl)c1
- GI50 (PC-3): > 100 µM (inactive)
- GI50 (BT-549): > 100 µM (inactive)
- GI50 (MDA-MB-435): > 100 µM (inactive)
- GI50 (CCRF-CEM): > 100 µM (inactive)
- GI50 (SN12C): > 100 µM (inactive)
- GI50 (Hs-578T): > 100 µM (inactive)
- GI50 (MDA-MB-231): > 100 µM (inactive)
- GI50 (NCI-H460): > 100 µM (inactive)
- GI50 (UO-31): > 100 µM (inactive)
- GI50 (CAKI-1): > 100 µM (inactive)
- GI50 (OVCAR-8): > 100 µM (inactive)
- GI50 (SK-MEL-28): > 100 µM (inactive)
- GI50 (RXF 393): > 100 µM (inactive)
- GI50 (NCI-H226): > 100 µM (inactive)
- GI50 (HL-60): > 100 µM (inactive)
- GI50 (M14): > 100 µM (inactive)
- GI50 (SK-MEL-5): > 100 µM (inactive)
- GI50 (A549): > 100 µM (inactive)
- GI50 (MDA-N): > 100 µM (inactive)

Compound: CC1=C(CC2C(=O)N(c3ccccc3)S(=O)(=O)NC2C)C(=O)N(c2ccccc2)S(=O)(=O)N1C (stereo unspecified)
- GI50 (SNB-78): > 100 µM (inactive)
- GI50 (CCRF-CEM): > 100 µM (inactive)
- GI50 (SN12C): > 100 µM (inactive)
- GI50 (NCI-H460): > 100 µM (inactive)
- GI50 (UO-31): > 100 µM (inactive)
- GI50 (CAKI-1): > 100 µM (inactive)
- GI50 (OVCAR-8): > 100 µM (inactive)
- GI50 (SK-MEL-28): > 100 µM (inactive)
- GI50 (NCI-H226): > 100 µM (inactive)
- GI50 (M14): > 100 µM (inactive)
- GI50 (SK-MEL-5): > 100 µM (inactive)
- GI50 (A549): > 100 µM (inactive)
